Where two headings read alike, the source gives them in different places.
What was measured:
Format in all cases: cell-based
[1] = target: GluN1/2C NMDA receptor (Homo sapiens, UniProt Q05586+Q14957); test: Two-electrode voltage clamp (TEVC), Xenopus oocytes expressing recombinant GluN1/2C; settings: 10 μM glycine and 10 μM glutamate; EC50 ND, n=6
Procedure: (§1) Two-electrode voltage clamp)TEVC) and patch clamp electrophysiology techniques were used to study CNS004 induced changes in NMDA receptor functions. Briefly, appropriate combinations of cRNA encoding different NMDA receptor subunits were injected into Xenopus oocytes and incubated at about 18° C. for about 2-4 days before TEVC assays. TEVC assays were performed with a −60 mV holding potential. […]

[2] = target: GluN1/2A/2B triheteromeric NMDA receptor (Homo sapiens, UniProt Q05586+Q12879+Q13224); test: Two-electrode voltage clamp (TEVC), Xenopus oocytes expressing recombinant GluN1/2A/2B
Procedure: Briefly, appropriate combinations of cRNA encoding different NMDA receptor subunits were injected into Xenopus oocytes and incubated at about 18° C. for about 2-4 days before TEVC assays. TEVC assays were performed with a −60 mV holding potential.

[3] = target: T1, GluN1/2A NMDA receptor (Homo sapiens, UniProt Q05586+Q12879); test: Patch clamp electrophysiology, HEK293T cells expressing recombinant GluN1/2A; settings: 100 μM CNS004
Procedure: (§2) Patch clamp electrophysiology was also performed. Briefly, HEK293T cells were transfected with cDNA encoding NMDA receptor subunits 18-24 hours prior to patch clamp procedures. The effect of CNS004 on the agonist induced NMDA receptor function was evaluated at −80 mV.

[4] = target: T1, GluN1/2A NMDA receptor; test: Two-electrode voltage clamp (TEVC), Xenopus oocytes expressing recombinant GluN1/2A
Procedure: as §1

[5] = target: T2, GluN1/2A/2B NMDA receptor (Homo sapiens, UniProt Q05586+Q12879+Q13224); test: Patch clamp electrophysiology, HEK293T cells expressing recombinant GluN1/2A/2B
T2 construct: expressed in transfected cells; host or cells: HEK293T
Procedure: as §2

[6] = target: GluN1/2B NMDA receptor (Homo sapiens, UniProt Q05586+Q13224); test: Two-electrode voltage clamp (TEVC), Xenopus oocytes expressing recombinant GluN1/2B
Procedure: as §1

[7] = target: GluN1/2D NMDA receptor (Homo sapiens, UniProt O15399+Q05586); test: Two-electrode voltage clamp (TEVC), Xenopus oocytes expressing recombinant GluN1/2D; settings: 10 μM glycine and 10 μM glutamate; EC50 ND, n=5
Procedure: as §1

[8] = target: GluN1/2B (Homo sapiens, UniProt Q05586+Q13224); test: NMDA receptor subunit selectivity of CNS004 analogs, average response, 1/2B; settings: compound 100 μM
[9] = target: GluN1/2A (Homo sapiens, UniProt Q05586+Q12879); test: NMDA receptor subunit selectivity of CNS004 analogs, average response, 1/2A; settings: compound 100 μM
[10] = target: GluN1/2A/2B (TH) (Homo sapiens, UniProt Q05586+Q12879+Q13224); test: NMDA receptor subunit selectivity of CNS004 analogs, average response, TH; settings: compound 100 μM

T1 sequence (Q12879 23-1464, other chains not shown): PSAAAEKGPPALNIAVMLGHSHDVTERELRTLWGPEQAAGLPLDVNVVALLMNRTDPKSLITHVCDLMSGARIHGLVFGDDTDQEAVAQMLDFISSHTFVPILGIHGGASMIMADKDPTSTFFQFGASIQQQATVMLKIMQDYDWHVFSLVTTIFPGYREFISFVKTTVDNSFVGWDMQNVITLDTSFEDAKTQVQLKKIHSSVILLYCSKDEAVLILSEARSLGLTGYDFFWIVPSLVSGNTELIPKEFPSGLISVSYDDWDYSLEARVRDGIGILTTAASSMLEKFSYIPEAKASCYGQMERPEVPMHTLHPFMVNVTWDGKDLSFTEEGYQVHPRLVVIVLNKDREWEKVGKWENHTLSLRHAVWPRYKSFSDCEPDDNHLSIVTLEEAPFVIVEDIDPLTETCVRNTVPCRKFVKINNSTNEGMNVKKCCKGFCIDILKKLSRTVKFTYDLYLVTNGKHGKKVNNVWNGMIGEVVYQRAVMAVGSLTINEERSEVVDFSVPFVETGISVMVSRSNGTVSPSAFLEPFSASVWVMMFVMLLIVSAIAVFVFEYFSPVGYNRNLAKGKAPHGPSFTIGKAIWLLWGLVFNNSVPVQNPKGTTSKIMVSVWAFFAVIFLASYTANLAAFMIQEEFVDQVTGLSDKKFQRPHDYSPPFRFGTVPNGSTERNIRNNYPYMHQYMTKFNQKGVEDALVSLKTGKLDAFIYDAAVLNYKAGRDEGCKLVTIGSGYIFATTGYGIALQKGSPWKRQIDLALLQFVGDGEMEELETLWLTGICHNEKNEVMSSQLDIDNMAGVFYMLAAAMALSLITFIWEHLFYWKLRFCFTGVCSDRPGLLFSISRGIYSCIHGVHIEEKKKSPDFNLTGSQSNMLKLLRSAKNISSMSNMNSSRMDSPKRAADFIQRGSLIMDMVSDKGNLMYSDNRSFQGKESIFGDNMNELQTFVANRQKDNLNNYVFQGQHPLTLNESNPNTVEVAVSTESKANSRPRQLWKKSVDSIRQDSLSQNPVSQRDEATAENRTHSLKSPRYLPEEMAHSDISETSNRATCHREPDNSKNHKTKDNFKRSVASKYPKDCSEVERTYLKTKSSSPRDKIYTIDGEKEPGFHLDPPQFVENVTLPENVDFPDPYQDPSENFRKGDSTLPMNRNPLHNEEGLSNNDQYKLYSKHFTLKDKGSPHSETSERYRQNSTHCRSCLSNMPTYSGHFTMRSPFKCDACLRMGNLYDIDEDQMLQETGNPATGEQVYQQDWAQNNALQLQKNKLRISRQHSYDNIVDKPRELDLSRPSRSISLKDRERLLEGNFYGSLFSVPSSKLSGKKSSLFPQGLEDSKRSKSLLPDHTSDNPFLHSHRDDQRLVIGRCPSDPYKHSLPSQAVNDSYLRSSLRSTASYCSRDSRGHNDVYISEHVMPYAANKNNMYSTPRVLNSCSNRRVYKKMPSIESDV
T2 sequence (Q12879 23-1464, other chains not shown): as above
T2 sequence (Q13224 27-1484, other chains not shown): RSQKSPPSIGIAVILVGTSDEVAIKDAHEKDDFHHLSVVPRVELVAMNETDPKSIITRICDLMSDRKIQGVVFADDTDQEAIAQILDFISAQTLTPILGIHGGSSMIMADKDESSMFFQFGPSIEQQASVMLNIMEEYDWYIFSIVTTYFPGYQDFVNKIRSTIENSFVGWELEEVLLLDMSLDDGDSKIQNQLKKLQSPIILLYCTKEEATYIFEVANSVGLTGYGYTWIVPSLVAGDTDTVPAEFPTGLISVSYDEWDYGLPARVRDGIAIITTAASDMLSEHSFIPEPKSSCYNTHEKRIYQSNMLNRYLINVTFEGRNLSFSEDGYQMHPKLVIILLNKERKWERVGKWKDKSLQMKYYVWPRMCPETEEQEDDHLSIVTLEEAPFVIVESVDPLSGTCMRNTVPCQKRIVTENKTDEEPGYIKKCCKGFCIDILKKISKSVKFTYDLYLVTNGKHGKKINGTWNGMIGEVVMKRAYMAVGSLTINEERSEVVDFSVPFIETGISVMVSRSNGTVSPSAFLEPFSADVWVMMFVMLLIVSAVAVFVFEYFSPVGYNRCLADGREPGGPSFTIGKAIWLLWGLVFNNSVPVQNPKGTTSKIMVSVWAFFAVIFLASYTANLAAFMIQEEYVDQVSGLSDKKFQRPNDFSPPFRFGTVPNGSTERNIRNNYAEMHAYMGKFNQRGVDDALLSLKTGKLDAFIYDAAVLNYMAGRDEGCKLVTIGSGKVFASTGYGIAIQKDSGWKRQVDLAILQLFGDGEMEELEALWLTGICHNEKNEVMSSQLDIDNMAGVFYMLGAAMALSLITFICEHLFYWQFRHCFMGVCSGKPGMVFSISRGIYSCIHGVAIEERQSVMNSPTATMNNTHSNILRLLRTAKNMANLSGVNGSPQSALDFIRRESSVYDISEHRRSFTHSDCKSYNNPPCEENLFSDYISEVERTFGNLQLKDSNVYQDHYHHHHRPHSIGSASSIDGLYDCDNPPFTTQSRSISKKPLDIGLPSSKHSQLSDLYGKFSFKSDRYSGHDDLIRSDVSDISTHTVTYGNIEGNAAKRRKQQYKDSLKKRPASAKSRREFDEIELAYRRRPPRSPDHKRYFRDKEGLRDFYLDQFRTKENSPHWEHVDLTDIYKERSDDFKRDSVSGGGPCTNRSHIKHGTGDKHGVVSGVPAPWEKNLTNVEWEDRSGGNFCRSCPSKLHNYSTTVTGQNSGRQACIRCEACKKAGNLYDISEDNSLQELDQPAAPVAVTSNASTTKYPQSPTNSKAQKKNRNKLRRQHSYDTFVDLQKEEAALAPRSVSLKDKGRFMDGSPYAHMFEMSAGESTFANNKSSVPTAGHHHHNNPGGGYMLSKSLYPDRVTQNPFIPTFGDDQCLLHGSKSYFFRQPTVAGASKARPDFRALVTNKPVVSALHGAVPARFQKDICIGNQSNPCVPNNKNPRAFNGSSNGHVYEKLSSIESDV

## O=C(NC(=S)N1CCCCC1c1cccnc1)c1ccc(F)cc1 (stereo not drawn) [CNS004, 4-Fluoro-N-(2-(pyridin-3-yl)piperidine-1-carbonothioyl)benzamide]
[1]
  effect on GluN1/2C (DRC): no activity
[2]; 10 μM glycine and 10 μM glutamate, n=6, read-out: EC50 of potentiation of GluN1/2A/2B (averaged and normalized DRC)
  EC50: 39 ± 22.4 µM
[2]; 30 uM CNS4, glutamate 100 uM
  change of glycine potency on GluN1/2A/2B: increase in glycine potency
[2]; 30 uM CNS4, glycine 100 uM
  change of glutamate potency on TH (GluN1/2A/2B): increase in glutamate potency
[2]; 30 μM and 100 μM CNS004
  effect on glycine and/or glutamate potency in GluN1/2A/2B (FIGS. 15A-15H): increases Glycine and/or Glutamate Potency
[2]; 100 μM CNS004, 100 μM glycine+100 μM glutamate, co-application, agonist pre-application, CNS004 pre-application
  effect on agonist induced current in GluN1/2A/2B in three sequences of application: potentiation
[2]; 100 μM glycine and 100 μM glutamate, n=5, read-out: EC50 of potentiation of GluN1/2A/2B (averaged dose response curve)
  EC50: 160 ± 15.4 µM
[2]; recombinant GluN1/2A, GluN1/2B and GluN1/2A/2B traces (FIG. 1E)
  effect of pre-application of CNS004 alone on agonist induced current response: did not change the agonist induced current response
[2]; recombinant GluN1/2A, GluN1/2B and GluN1/2A/2B traces (FIG. 1E), no agonist
  receptor activation in the absence of agonist glutamate or glycine: did not activate the receptor
[3]; 30 μM glycine and 100 μM glutamate
  effect of co-application with agonist on steady-state currents, GluN1/2A: potentiates steady-state currents
[3]; 100 μM glycine and 300 nM glutamate
  effect on 1/2A receptor currents at reduced glutamate: largely potentiated
[4]; 10 μM glycine and 10 μM glutamate, EC50 ND, n=6
  effect on GluN1/2A (DRC): minimally inhibited
[4]; 30 uM CNS4, glutamate 100 uM
  change of glycine potency on GluN1/2A: increase in glycine potency
[4]; 30 uM CNS4, glycine 100 uM
  change of glutamate potency on GluN1/2A: increase in glutamate potency
[4]; 100 μM glycine and 100 μM glutamate, EC50 not determined, n=3
  activity on GluN1/2A (averaged dose response curve): minimal activity
[5]; 100 μM CNS004, 30 μM glycine and 100 μM glutamate
  effect of co-application with agonist on steady-state currents, GluN1/2A/2B: potentiates steady-state currents
[5]; 100 μM CNS004, 100 μM glycine and 300 nM glutamate
  effect on 1/2A/2B currents at reduced glutamate: inhibits
[5]; 100 μM CNS004 pre-application, 30 μM glycine and 100 μM glutamate
  effect of CNS004 pre-application on steady-state currents, GluN1/2A/2B: steep reduction in steady-state currents
[5]; 100 μM CNS004 pre-application, 30 μM glycine and 100 μM glutamate, GluN1/2A/2B only
  effect of CNS004 pre-application on desensitization, GluN1/2A/2B: promotes desensitization
[6]; 30 uM CNS4, glutamate 100 uM
  change of glycine potency on GluN1/2B: increase in glycine potency
[6]; 100 μM glycine and 100 μM glutamate, EC50 not determined, n=4
  activity on GluN1/2B (averaged dose response curve): minimal activity
[6]; read-out: EC50 of potentiation of GluN1/2B (averaged and normalized DRC)
  EC50: 8.67 ± 2.77 µM
[7]
  effect on GluN1/2D (DRC): minimally inhibited

## O=C(NC(=S)N1CCCCC1c1cccnc1)c1ccc(C(F)(F)F)cc1 (stereo not drawn) [Compound 2]
[8]
  Average Response (% inhibition), 1/2B: −14.5863 % inhibition
[9]
  Average Response (% inhibition), 1/2A: −76.1696 % inhibition
[10]
  Average Response (% inhibition), TH: −3.954 % inhibition

## Fc1ccc(C(=S)NC(=S)N2CCCCC2c2cccnc2)cc1 (stereo not drawn) [Compound 3]
[8]
  Average Response (% inhibition), 1/2B: −45.1553 % inhibition
[9]
  Average Response (% inhibition), 1/2A: −52.246 % inhibition
[10]
  Average Response (% inhibition), TH: −13.1155 % inhibition

## O=C(NC(=O)N1CCCCC1c1cccnc1)c1ccc(F)cc1 (stereo not drawn) [Compound 4]
[8]
  Average Response (% inhibition), 1/2B: 5.755 % inhibition
[9]
  Average Response (% inhibition), 1/2A: 20.43 % inhibition
[10]
  Average Response (% inhibition), TH: 4.722 % inhibition

## O=C(NC(=S)N1CCCCC1c1cccnc1)c1ccc(C2CC2)cc1 (stereo not drawn) [Compound 5]
[8]
  Average Response (% inhibition), 1/2B: 9.468 % inhibition
[9]
  Average Response (% inhibition), 1/2A: 7.117 % inhibition
[10]
  Average Response (% inhibition), TH: −2.571 % inhibition

## O=C(NC(=S)N1CCCCC1c1cccnc1)c1ccc(CCCF)cc1 (stereo not drawn) [Compound 6]
[8]
  Average Response (% inhibition), 1/2B: 6.739 % inhibition
[9]
  Average Response (% inhibition), 1/2A: −21.076 % inhibition
[10]
  Average Response (% inhibition), TH: 7.444 % inhibition

## O=C(NC(=S)N1CCCCC1c1cccnc1)c1ccc(P(=O)(O)O)cc1 (stereo not drawn) [Compound 7]
[8]
  Average Response (% inhibition), 1/2B: 3.872 % inhibition
[9]
  Average Response (% inhibition), 1/2A: −1.858 % inhibition
[10]
  Average Response (% inhibition), TH: 16.4617 % inhibition

## COCCCc1ccc(C(=O)NC(=S)N2CCCCC2c2cccnc2)cc1 (stereo not drawn) [Compound 8]
[8]
  Average Response (% inhibition), 1/2B: 6.998 % inhibition
[9]
  Average Response (% inhibition), 1/2A: 0.4959 % inhibition
[10]
  Average Response (% inhibition), TH: 8.377 % inhibition

## O=C(NC(=S)N1CCCCC1c1cccnc1)c1ccc(Cl)c(F)c1 (stereo not drawn) [Compound 9]
[8]
  Average Response (% inhibition), 1/2B: −19.0618 % inhibition
[9]
  Average Response (% inhibition), 1/2A: −31.9381 % inhibition
[10]
  Average Response (% inhibition), TH: −11.9509 % inhibition

## O=C(NC(=S)N1CCCCC1c1cccnc1)c1cccc(F)n1 (stereo not drawn) [Compound 40]
[8]
  Average Response (% inhibition), 1/2B: −56.1908 % inhibition
[9]
  Average Response (% inhibition), 1/2A: −3.81 % inhibition
[10]
  Average Response (% inhibition), TH: −3.494 % inhibition

## COc1cccc(C(=O)NC(=S)N2CCCCC2c2cccnc2)c1OC (stereo not drawn) [Compound 41]
[8]
  Average Response (% inhibition), 1/2B: 0.6785 % inhibition
[9]
  Average Response (% inhibition), 1/2A: 15.8054 % inhibition
[10]
  Average Response (% inhibition), TH: 27.54 % inhibition

## CC(C(O)c1ccc(O)cc1)N1CCC(Cc2ccccc2)CC1 (stereo not drawn) [ifenprodil, reference compound]
[2]; GluN1/2B selective antagonist
  selectivity for GluN1/2A/2B receptor (FIG. 9G): intermediate selectivity

Reference: patent US12485115B2, “Biased NMDA receptor modulators and uses thereof” (EDWARD VIA COLLEGE OF OSTEOPATHIC MEDICINE, priority 2018, dated 2025)
